# Test results reported in patent US11992473B2, “Compositions and methods for diagnosis and treatment of conditions related to the quality of aging and longevity” (Epitracker, Inc., priority 2018, dated 2024).
# Key:
# Assay type in all cases: cell-based, human
# [1] = tested on: Peripheral blood mononuclear cells, B cells; experiment: BioMAP Diversity PLUS BT system (T cell dependent B cell activation); conditions: BT system
# Protocol: (§1) This study examined activities of small molecules discovered in dolphin serum that had protective profiles against diseases of aging which can impact quality of life and longevity. These molecules were tested across 12 human primary cell-based systems as part of DiscoverX's BioMAP Diversity Plus program. These systems are designed to model complex human tissue and disease biology of the vasculature, skin, lung, and inflammatory tissues. Quantitative measurements of biomarker activities across this broad panel, along with comparative analysis of biological activities of known bioactive agents were used to predict and compare the efficacy and function of the four compounds. Compounds were tested at four concentrations (740 nm and 2.2, 6.7 and 20 μM).
# (§2) BioMAP panels consist of human primary cell-based systems designed to model different aspects of the human body in an in vitro format. The 12 systems in the Diversity PLUS panel allow test agent characterization in an unbiased way across a broad set of systems modeling various human disease states. BioMAP systems are constructed with one or more primary cell types from healthy human donors, with stimuli (such as cytokines or growth factors) added to capture relevant signaling networks that naturally occur in human tissue or pathological conditions. Vascular biology is modeled in both a Th1 (3C system) and a Th2 (4H system) inflammatory environment, as well as in a Th1 inflammatory state specific to arterial smooth muscle cells (CASM3C system). Additional systems recapitulate aspects of the systemic immune response including monocyte-driven Th1 inflammation (LPS system) or T cell stimulation (SAg system), chronic Th1 inflammation driven by macrophage activation (lMphg system) and the T cell-dependent activation of B cells that occurs in germinal centers (BT system). The BE3C system (Th1) and the BF4T system (Th2) represent airway inflammation of the lung, while the MyoF system models myofibroblast-lung tissue remodeling. Lastly, skin biology is addressed in the KF3CT system modeling Th1 cutaneous inflammation and the HDF3CGF system modeling wound healing.
# (§3) Each test agent generates a signature BioMAP profile that is created from the changes in protein biomarker readouts within individual system environments. Biomarker readouts (7-17 per system) are selected for therapeutic and biological relevance, are predictive for disease outcomes or specific drug effects and are validated using agents with known mechanism of action (MoA). Each readout is measured quantitatively by immune-based methods that detect protein (e.g., ELISA) or functional assays that measure proliferation and viability. BioMAP readouts are diverse and include cell surface receptors, cytokines, chemokines, matrix molecules and enzymes.
# (§4) The Diversity PLUS panel allows test agent characterization in an unbiased way across a broad set of systems modeling various human disease states. These systems are designed to model complex human tissue and disease biology of the vasculature, skin, lung, and inflammatory tissues.
# (§5) BioMAP systems are constructed with one or more primary cell types from healthy human donors, with stimuli (such as cytokines or growth factors) added to capture relevant signaling networks that naturally occur in human tissue or pathological conditions. Vascular biology is modeled in both a Th1 (3C system) and a Th2 (4H system) inflammatory environment, as well as in a Th1 inflammatory state specific to arterial smooth muscle cells (CASM3C system). Additional systems recapitulate aspects of the systemic immune response including monocyte-driven Th1 inflammation (LPS system) or T cell stimulation (SAg system), chronic Th1 inflammation driven by macrophage activation (lMphg system) and the T cell-dependent activation of B cells that occurs in germinal centers (BT system).
# [2] = tested on: Bronchial epithelial cells, dermal fibroblasts; experiment: BioMAP Diversity PLUS BF4T system (Th2 type lung inflammation)
# Protocol: as §1, §2
# as §3, with “enzymes. In total, the Diversity PLUS panel contains 148 biomarker readouts that capture biological changes that occur within the physiological context of the particular BioMAP system. Specific BioMAP activities have been correlated to in vivo biology, and multiparameter BioMAP profiles have been used to distinguish compounds based on MoA and target selectivity across diverse physiological systems.” for “enzymes.”
# (§6) The Diversity PLUS panel allows test agent characterization in an unbiased way across a broad set of systems modeling various human disease states. These systems are designed to model complex human tissue and disease biology of the vasculature, skin, lung, and inflammatory tissues. Quantitative measurements of 148 biomarker activities across this broad panel, along with comparative analysis of biological activities from known bioactive agents, were used to predict and compare the efficacy and function of each selected compound at four concentrations (740 nm and 2.2, 6.7 and 20 μM). […]
# [3] = tested on: Bronchial epithelial cells; experiment: BioMAP Diversity PLUS BE3C system (Th1 type lung inflammation)
# Protocol: as §1, §2
# as §3, with “enzymes. In total, the Diversity PLUS panel contains 148 biomarker readouts that capture biological changes that occur within the physiological context of the particular BioMAP system. Specific BioMAP activities have been correlated to in vivo biology, and multiparameter BioMAP profiles have been used to distinguish compounds based on MoA and target selectivity across diverse physiological systems.” for “enzymes.”
# as §6
# Dermal fibroblasts = experiment: BioMAP Diversity PLUS HDF3CGF system (wound healing and matrix/tissue remodeling)
# Protocol: as §1, §2, §3, §4, §5
# Lung fibroblasts = experiment: BioMAP Diversity PLUS MyoF system (myofibroblast differentiation and tissue remodeling)
# Protocol: as §1, §2
# as §3, with “enzymes. In total, the Diversity PLUS panel contains 148 biomarker readouts that capture biological changes that occur within the physiological context of the particular BioMAP system. Specific BioMAP activities have been correlated to in vivo biology, and multiparameter BioMAP profiles have been used to distinguish compounds based on MoA and target selectivity across diverse physiological systems.” for “enzymes.”
# as §6
# [4] = tested on: Macrophages, venular endothelial cells; experiment: BioMAP Diversity PLUS lMphg system (Th1 type chronic inflammation, macrophage activation); conditions: /Mphg system
# Protocol: as §1, §2
# as §3, with “enzymes. In total, the Diversity PLUS panel contains 148 biomarker readouts that capture biological changes that occur within the physiological context of the particular BioMAP system. Specific BioMAP activities have been correlated to in vivo biology, and multiparameter BioMAP profiles have been used to distinguish compounds based on MoA and target selectivity across diverse physiological systems.” for “enzymes.”
# as §6
# [5] = tested on: Coronary artery smooth muscle cells; experiment: BioMAP Diversity PLUS CASM3C system (Th1 type vascular inflammation)
# Protocol: as §1, §2, §3, §4, §5
# [6] = tested on: Venular endothelial cells, peripheral blood mononuclear cells; experiment: BioMAP Diversity PLUS LPS system (Th1 type chronic inflammation, monocyte activation); conditions: for Significant log10 reduction compared to nontreated controls: Secreted prostaglandin E2 (PGE2): LPS system
# Protocol: as §1, §2, §3, §4, §5
compound,measurement,setting,value
CCCCC/C=C\C/C=C\C/C=C\C/C=C\CCCC(=O)O[C@H](COC(=O)CCCCCCCCCCCCCCC)COP(=O)([O-])OCC[N+](C)(C)C [1-palmitoyl-2-arachidonoyl-GPC],Significant log10 reduction compared to nontreated controls: Secreted interleukin 17F (IL-17F),[1]; 2.2 μM,−0.12 log10
same,Significant log10 reduction compared to nontreated controls: Secreted interleukin 2 (IL-2),[1]; 20.0 μM,−0.27 log10
same,Significant log10 reduction compared to nontreated controls: Secreted interleukin 17F (IL-17F),[1]; 20.0 μM,−0.24 log10
same,Significant log10 reduction compared to nontreated controls: Secreted tumor necrosis factor alpha (TNFα),[1]; 20.0 μM,−0.16 log10
same,Significant log10 reduction compared to nontreated controls: Eotaxin 3 (CCL26),[2]; 2.2 μM,−0.11 log10
same,Significant log10 reduction compared to nontreated controls: Eotaxin 3 (CCL26),[2]; 6.7 μM,−0.24 log10
same,Significant log10 reduction compared to nontreated controls: Plasminogen activation inhibitor 1 (PAI-1),[2]; 6.7 μM,−0.07 log10
same,Significant log10 reduction compared to nontreated controls: Eotaxin 3 (CCL26),[2]; 20.0 μM,−0.58 log10
same,Significant log10 reduction compared to nontreated controls: Plasminogen activation inhibitor 1 (PAI-1),[2]; 20.0 μM,−0.19 log10
same,Significant log10 reduction compared to nontreated controls: Keratin 8/18,[3]; 6.7 μM,−0.08 log10
same,Significant log10 reduction compared to nontreated controls: Interleukin 8 (IL-8)/CXCL8,[3]; 20.0 μM,−0.12 log10
same,Significant log10 reduction compared to nontreated controls: Matrix metalloproteinase 9 (MMP-9),[3]; 20.0 μM,−0.11 log10
same,Significant log10 reduction compared to nontreated controls: Plasminogen activation inhibitor 1 (PAI-1),[3]; 20.0 μM,−0.12 log10
same,Significant log10 reduction compared to nontreated controls: Plasminogen activation inhibitor 1 (PAI-1),"Dermal fibroblasts; HDF3CGF system, 20.0 μM",−0.11 log10
same,Significant log10 reduction compared to nontreated controls: Alpha smooth muscle actin (αSMA),Lung fibroblasts; 0.7 μM,−0.07 log10
same,Significant log10 reduction compared to nontreated controls: Alpha smooth muscle actin (αSMA),Lung fibroblasts; 2.2 μM,−0.09 log10
same,Significant log10 reduction compared to nontreated controls: Alpha smooth muscle actin (αSMA),Lung fibroblasts; 6.7 μM,−0.10 log10
same,Significant log10 reduction compared to nontreated controls: Alpha smooth muscle actin (αSMA),Lung fibroblasts; 20.0 μM,−0.18 log10
same,Significant log10 reduction compared to nontreated controls: Monocyte chemoattractant protein 1 (MCP-1),[4]; 2.2 μM,−0.12 log10
same,Significant log10 reduction compared to nontreated controls: Monocyte chemoattractant protein 1 (MCP-1),[4]; 6.7 μM,−0.13 log10
same,Significant log10 reduction compared to nontreated controls: Secreted interleukin 10 (IL-10),[4]; 6.7 μM,−0.18 log10
same,Significant log10 reduction compared to nontreated controls: CD69,[4]; 20.0 μM,−0.11 log10
same,Significant log10 reduction compared to nontreated controls: Monocyte chemoattractant protein 1 (MCP-1),[4]; 20.0 μM,−0.18 log10
NC(=O)CC[C@H](NC(=O)CC[C@H](N)C(=O)O)C(=O)O [Gamma-glutamylglutamine],Significant log10 reduction compared to nontreated controls: Secreted interleukin 6 (IL-6),[1]; 20.0 μM,−0.13 log10
same,Significant log10 reduction compared to nontreated controls: Vascular cell adhesion molecule 1 (VCAM-1),"[5]; CASM3C system (as aligned in the table), 20.0 μM",−0.15 log10
same,Significant log10 reduction compared to nontreated controls: Serum amyloid A,"[5]; CASM3C system, 6.7 μM",−0.11 log10
same,Significant log10 reduction compared to nontreated controls: Collagen III,"Dermal fibroblasts; HDF3CGF system, 20.0 μM",−0.10 log10
same,Significant log10 reduction compared to nontreated controls: Monocyte chemoattractant protein 1 (MCP-1),[4]; 0.7 μM,−0.18 log10
same,Significant log10 reduction compared to nontreated controls: Monocyte chemoattractant protein 1 (MCP-1),[4]; 2.2 μM,−0.10 log10
same,Significant log10 reduction compared to nontreated controls: Interleukin 1 alpha (IL-1α),[4]; 20.0 μM,−0.16 log10
O=C(O)c1cc(O)c2cccc(O)c2n1 [Xanthurenate],Significant log10 reduction compared to nontreated controls: Secreted prostaglandin E2 (PGE2),[6]; 6.7 μM,−0.16 log10
same,Significant log10 reduction compared to nontreated controls: Secreted prostaglandin E2 (PGE2),[6]; 20.0 μM,−0.09 log10
same,secretion of prostaglandin E2 (PGE2),[6]; human cell system mimicking T-cell and monocyte driven chronic inflammation and cardiovascular diseases (FIG. 4),lowered
same,Significant log10 reduction compared to nontreated controls: Secreted interleukin 6 (IL-6),[1]; 20.0 μM,−0.13 log10
same,Significant log10 reduction compared to nontreated controls: Secreted tumor necrosis factor alpha (TNFα),[1]; 20.0 μM,−0.19 log10
same,IL-6,[5]; human cell system mimicking cardiovascular inflammation (FIG. 6),lowered
same,interleukin 8 (IL-8),"Dermal fibroblasts; human cell system mimicking wound healing, remodeling, fibrosis and chronic inflammation (FIG. 8)",inhibitory activity
